Reference: paper PMC11345841, “Exploring 2-Sulfonylpyrimidine Warheads as Acrylamide Surrogates for Targeted Covalent Inhibition: A BTK Story” (Journal of Medicinal Chemistry, 2024)
Like-named read-outs stand apart in the source and are kept apart here.

Columns and labels:
Experiment in all cases: KINOMEscan ScanTK
Format in all cases: binding
[1] = biological target: T1, ABL1(T315I)-phosphorylated (Homo sapiens, UniProt P00519, T315I)
T1 construct: purchased Eurofins DiscoverX KINOMEscan (scanTK)

[2] = biological target: T2, EPHA4 (Homo sapiens, UniProt P54764)
T2 construct: purchased Eurofins DiscoverX KINOMEscan (scanTK)
T2 sequence (P54764 20-986): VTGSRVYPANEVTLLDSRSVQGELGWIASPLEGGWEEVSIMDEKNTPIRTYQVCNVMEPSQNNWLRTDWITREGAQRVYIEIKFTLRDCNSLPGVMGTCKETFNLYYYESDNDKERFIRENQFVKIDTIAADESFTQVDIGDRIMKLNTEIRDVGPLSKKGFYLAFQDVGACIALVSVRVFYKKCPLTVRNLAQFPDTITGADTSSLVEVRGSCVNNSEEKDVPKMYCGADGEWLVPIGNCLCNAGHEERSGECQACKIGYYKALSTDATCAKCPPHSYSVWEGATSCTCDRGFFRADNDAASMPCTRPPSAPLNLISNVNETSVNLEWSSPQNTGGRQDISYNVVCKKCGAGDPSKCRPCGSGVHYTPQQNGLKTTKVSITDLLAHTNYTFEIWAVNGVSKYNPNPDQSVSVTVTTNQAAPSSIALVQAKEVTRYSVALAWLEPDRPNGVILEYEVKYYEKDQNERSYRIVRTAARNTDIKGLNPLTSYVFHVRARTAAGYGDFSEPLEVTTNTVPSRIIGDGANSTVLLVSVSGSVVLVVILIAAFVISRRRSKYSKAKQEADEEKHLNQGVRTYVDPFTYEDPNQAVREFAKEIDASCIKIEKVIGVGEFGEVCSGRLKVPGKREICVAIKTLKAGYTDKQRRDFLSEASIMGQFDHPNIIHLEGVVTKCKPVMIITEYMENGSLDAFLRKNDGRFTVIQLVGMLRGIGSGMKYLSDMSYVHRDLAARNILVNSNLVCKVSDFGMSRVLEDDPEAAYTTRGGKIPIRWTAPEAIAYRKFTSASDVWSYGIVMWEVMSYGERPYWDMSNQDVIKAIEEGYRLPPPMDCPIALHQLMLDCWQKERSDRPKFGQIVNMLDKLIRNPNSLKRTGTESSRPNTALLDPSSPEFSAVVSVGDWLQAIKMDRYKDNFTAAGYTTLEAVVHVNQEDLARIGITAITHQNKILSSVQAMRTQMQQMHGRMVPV

[3] = biological target: T3, EPHA6 (Homo sapiens, UniProt Q9UF33)
T3 construct: purchased Eurofins DiscoverX KINOMEscan (scanTK)
T3 sequence (Q9UF33 23-1036): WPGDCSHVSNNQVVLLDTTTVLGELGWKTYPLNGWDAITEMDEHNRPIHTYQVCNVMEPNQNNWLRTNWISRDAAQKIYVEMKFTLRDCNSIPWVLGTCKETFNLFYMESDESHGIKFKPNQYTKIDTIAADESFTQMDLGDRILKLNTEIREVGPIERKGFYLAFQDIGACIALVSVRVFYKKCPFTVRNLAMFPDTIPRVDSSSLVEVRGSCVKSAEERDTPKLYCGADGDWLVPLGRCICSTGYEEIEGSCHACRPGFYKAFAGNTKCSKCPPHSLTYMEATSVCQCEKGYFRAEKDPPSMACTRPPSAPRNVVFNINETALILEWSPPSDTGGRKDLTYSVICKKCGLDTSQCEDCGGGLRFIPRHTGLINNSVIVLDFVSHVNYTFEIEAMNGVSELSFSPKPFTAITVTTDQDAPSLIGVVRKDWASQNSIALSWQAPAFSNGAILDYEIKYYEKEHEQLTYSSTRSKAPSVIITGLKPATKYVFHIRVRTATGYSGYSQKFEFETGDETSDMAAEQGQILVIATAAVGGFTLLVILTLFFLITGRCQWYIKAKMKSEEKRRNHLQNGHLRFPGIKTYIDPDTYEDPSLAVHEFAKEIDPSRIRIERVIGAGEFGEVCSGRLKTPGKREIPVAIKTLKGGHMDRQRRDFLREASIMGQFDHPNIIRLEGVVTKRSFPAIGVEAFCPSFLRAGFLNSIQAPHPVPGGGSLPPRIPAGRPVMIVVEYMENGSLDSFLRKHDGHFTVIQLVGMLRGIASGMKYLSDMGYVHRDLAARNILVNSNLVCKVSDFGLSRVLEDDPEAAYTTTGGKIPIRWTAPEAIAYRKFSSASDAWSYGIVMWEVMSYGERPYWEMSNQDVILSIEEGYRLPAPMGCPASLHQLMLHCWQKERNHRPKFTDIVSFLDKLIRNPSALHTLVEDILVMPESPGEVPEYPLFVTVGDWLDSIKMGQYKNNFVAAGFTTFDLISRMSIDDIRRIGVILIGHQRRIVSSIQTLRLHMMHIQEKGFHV

[4] = biological target: T4, FLT3-autoinhibited (Homo sapiens, UniProt P36888)
T4 construct: purchased Eurofins DiscoverX KINOMEscan (scanTK)
T4 sequence (P36888 27-993): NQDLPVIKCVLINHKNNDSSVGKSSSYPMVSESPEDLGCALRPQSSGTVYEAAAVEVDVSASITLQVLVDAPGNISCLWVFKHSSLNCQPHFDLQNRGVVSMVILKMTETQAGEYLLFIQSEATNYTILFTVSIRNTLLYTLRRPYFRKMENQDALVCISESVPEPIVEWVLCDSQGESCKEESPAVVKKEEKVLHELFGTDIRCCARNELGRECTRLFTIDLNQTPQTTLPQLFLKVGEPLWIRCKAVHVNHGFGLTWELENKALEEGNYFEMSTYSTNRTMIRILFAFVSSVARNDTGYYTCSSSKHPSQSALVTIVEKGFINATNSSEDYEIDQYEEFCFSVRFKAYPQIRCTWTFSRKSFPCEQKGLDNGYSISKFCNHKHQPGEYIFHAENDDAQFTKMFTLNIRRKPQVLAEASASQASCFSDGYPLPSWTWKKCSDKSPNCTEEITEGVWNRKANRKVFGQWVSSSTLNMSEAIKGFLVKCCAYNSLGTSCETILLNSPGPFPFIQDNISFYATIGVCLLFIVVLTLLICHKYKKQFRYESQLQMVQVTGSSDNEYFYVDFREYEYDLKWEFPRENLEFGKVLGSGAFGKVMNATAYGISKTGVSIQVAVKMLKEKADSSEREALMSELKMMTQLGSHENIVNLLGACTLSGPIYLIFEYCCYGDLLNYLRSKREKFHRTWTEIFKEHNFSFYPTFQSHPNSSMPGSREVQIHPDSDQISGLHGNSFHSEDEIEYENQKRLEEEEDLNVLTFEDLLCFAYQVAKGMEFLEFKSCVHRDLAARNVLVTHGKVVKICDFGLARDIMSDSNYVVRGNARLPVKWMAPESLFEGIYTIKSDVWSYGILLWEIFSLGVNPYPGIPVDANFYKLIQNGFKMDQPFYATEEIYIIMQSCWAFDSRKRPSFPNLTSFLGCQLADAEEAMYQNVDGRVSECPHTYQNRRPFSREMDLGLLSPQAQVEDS

[5] = biological target: T5, FLT4 (Homo sapiens, UniProt P35916)
T5 construct: purchased Eurofins DiscoverX KINOMEscan (scanTK)
T5 sequence (P35916 25-1363): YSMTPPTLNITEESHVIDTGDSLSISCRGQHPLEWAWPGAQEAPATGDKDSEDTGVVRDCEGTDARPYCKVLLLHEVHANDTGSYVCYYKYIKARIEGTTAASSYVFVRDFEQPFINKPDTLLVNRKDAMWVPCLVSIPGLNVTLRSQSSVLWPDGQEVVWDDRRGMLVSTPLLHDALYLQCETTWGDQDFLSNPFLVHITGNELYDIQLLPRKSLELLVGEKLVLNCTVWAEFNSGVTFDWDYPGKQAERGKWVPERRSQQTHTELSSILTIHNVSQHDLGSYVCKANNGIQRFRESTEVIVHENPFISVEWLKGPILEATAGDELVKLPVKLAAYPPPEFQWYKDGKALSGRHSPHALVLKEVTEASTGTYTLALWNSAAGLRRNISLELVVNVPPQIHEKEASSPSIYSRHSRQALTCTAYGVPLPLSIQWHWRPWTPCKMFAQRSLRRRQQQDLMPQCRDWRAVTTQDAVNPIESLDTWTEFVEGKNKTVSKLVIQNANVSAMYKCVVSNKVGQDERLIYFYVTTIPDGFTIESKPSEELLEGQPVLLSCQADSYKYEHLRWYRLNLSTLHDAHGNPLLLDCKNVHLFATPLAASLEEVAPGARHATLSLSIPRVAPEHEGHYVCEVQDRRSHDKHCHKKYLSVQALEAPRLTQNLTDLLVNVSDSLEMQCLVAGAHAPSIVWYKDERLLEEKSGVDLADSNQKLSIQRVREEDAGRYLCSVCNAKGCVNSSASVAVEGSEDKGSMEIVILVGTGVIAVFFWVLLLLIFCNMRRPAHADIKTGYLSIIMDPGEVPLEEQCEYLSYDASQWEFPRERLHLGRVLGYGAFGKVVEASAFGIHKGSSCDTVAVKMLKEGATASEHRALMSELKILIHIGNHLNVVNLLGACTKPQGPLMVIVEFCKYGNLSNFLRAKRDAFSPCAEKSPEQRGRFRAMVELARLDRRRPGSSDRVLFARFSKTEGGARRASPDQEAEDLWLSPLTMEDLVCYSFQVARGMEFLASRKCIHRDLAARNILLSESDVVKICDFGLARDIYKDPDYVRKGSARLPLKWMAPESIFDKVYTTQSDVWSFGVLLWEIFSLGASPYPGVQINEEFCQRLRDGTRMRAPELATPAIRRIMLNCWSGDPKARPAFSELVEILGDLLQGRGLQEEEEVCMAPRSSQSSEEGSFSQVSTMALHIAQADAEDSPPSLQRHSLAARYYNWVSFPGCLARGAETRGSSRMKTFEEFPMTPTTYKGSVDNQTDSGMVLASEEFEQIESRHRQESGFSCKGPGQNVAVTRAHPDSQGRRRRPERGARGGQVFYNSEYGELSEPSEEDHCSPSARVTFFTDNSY

[6] = biological target: T6, JAK1(JH2domain-pseudokinase) (Homo sapiens, UniProt P23458)
T6 construct: JAK1(JH2domain-pseudokinase); purchased Eurofins DiscoverX KINOMEscan (scanTK)
T6 sequence (P23458 583-855 limits assumed): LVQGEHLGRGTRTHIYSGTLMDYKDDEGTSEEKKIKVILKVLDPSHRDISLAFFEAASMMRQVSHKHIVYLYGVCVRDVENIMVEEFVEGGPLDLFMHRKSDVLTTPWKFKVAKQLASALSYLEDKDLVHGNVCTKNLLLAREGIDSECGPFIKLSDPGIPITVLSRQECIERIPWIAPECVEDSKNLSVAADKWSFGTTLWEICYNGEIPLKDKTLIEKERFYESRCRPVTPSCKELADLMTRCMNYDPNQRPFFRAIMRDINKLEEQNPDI

difference in %Control versus compound Ib at 1 µM ([1]; @1000nM) [%] | remaining binding at 1 µM ([1]; @1000nM, read-out: %Control) [%] | remaining binding at 1 µM ([1]; read-out: %Control @1000nM) [%] | %Control difference from compound Ib at 1 µM ([2]; @1000nM) [%] | remaining binding at 1 µM ([2]; @1000nM, read-out: %Control) [%] | remaining binding at 1 µM ([2]; read-out: %Control @1000nM) [%] | difference in %Control from compound Ib at 1 µM ([3]; @1000nM) [%] | remaining binding at 1 µM ([3]; @1000nM, read-out: %Control) [%] | remaining binding at 1 µM ([3]; read-out: %Control @1000nM) [%] | difference in %Control vs compound Ib at 1 µM ([4]; @1000nM) [%] | remaining binding at 1 µM ([4]; @1000nM, read-out: %Control) [%] | remaining binding at 1 µM ([4]; read-out: %Control @1000nM) [%] | difference in %Control from compound Ib at 1 µM ([5]; @1000nM) [%] | remaining binding at 1 µM ([5]; @1000nM, read-out: %Control) [%] | remaining binding at 1 µM ([5]; read-out: %Control @1000nM) [%] | %Control difference versus compound Ib at 1 µM ([6]; @1000nM) [%] | remaining binding at 1 µM ([6]; @1000nM, read-out: %Control) [%] | remaining binding at 1 µM ([6]; read-out: %Control @1000nM) [%] | Structure (SMILES)
-7 | 72 | 72 | 9 | 100 | 100 | 10 | 87 | 87 | 3 | 100 | 100 | 73 | 100 | 100 | 4 | 99 | 99 | CCOC(=O)c1cnc(S(C)(=O)=O)nc1N1CCC[C@@H](n2nc(-c3ccc(Oc4ccccc4)cc3)c3c(N)ncnc32)C1 [Compound 8c, Ethyl (R)-4-(3-(4-Amino-3-(4-phenoxyphenyl)-1H-pyrazolo[3,4-d]pyrimidin-1-yl)piperidin-1-yl)-2-(methylsulfonyl)pyrimidine-5-carboxylate]
-9 | 70 | 70 | 9 | 100 | 100 | 23 | 100 | 100 | -18 | 79 | 79 | 61 | 88 | 88 | 5 | 100 | 100 | Cc1cnc(S(C)(=O)=O)nc1N1CCCC(n2nc(-c3ccc(Oc4ccccc4)cc3)c3c(N)ncnc32)C1 (centres unmarked) [Compound 8a, 1-(1-(5-Methyl-2-(methylsulfonyl)pyrimidin-4-yl)piperidin-3-yl)-3-(4-phenoxyphenyl)-1H-pyrazolo[3,4-d]pyrimidin-4-amine]
-11 | 68 | 68 | 7 | 98 | 98 | 15 | 92 | 92 | -7 | 90 | 90 | 62 | 89 | 89 | 4 | 99 | 99 | COC(=O)c1cnc(S(C)(=O)=O)nc1N1CCCC(n2nc(-c3ccc(Oc4ccccc4)cc3)c3c(N)ncnc32)C1 (centres unmarked) [Compound 8b, Methyl 4-(3-(4-Amino-3-(4-phenoxyphenyl)-1H-pyrazolo[3,4-d]pyrimidin-1-yl)piperidin-1-yl)-2-(methylsulfonyl)pyrimidine-5-carboxylate]

More lines, now with the values behind:

Structure (SMILES) | difference in %Control versus compound Ib at 1 µM ([1]; @1000nM) [%] | remaining binding at 1 µM ([1]; @1000nM, read-out: %Control) [%] | remaining binding at 1 µM ([1]; read-out: %Control @1000nM) [%] | %Control difference from compound Ib at 1 µM ([2]; @1000nM) [%] | remaining binding at 1 µM ([2]; @1000nM, read-out: %Control) [%] | remaining binding at 1 µM ([2]; read-out: %Control @1000nM) [%] | difference in %Control from compound Ib at 1 µM ([3]; @1000nM) [%] | remaining binding at 1 µM ([3]; @1000nM, read-out: %Control) [%] | remaining binding at 1 µM ([3]; read-out: %Control @1000nM) [%] | difference in %Control vs compound Ib at 1 µM ([4]; @1000nM) [%] | remaining binding at 1 µM ([4]; @1000nM, read-out: %Control) [%] | remaining binding at 1 µM ([4]; read-out: %Control @1000nM) [%] | difference in %Control from compound Ib at 1 µM ([5]; @1000nM) [%] | remaining binding at 1 µM ([5]; @1000nM, read-out: %Control) [%] | remaining binding at 1 µM ([5]; read-out: %Control @1000nM) [%] | %Control difference versus compound Ib at 1 µM ([6]; @1000nM) [%] | remaining binding at 1 µM ([6]; @1000nM, read-out: %Control) [%] | remaining binding at 1 µM ([6]; read-out: %Control @1000nM) [%]
CNC(=O)c1cnc(S(C)(=O)=O)nc1N1CCCC(n2nc(-c3ccc(Oc4ccccc4)cc3)c3c(N)ncnc32)C1 (centres unmarked) [Compound 8d, 4-(3-(4-Amino-3-(4-phenoxyphenyl)-1H-pyrazolo[3,4-d]pyrimidin-1-yl)piperidin-1-yl)-N-methyl-2-(methylsulfonyl)pyrimidine-5-carboxamide] | 6 | 85 | 85 | 9 | 100 | 100 | 20 | 97 | 97 | 3 | 100 | 100 | 67 | 94 | 94 | 5 | 100 | 100
C=CC(=O)N1CCC[C@@H](n2nc(-c3ccc(Oc4ccccc4)cc3)c3c(N)ncnc32)C1 [Compound 1g, Ibrutinib, reference compound] | – | – | – | – | 91 | 91 | – | 77 | 77 | – | – | – | – | 27 | 27 | – | 95 | 95
